# Data reported in PubChem BioAssay (NCI).
#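 Grown in 96-well plates, cells were treated for 48 hours with each compound at five concentrations. Insufficient inhibition: endpoint recorded as highest concentration tested. GI50: concentration for 50% inhibition of growth. TGI marks complete inhibition of growth.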
# Tests used:
# Assay in all cases: NCI-60 cell line screen, 48 h
# SF-539 CNS = system: SF-539 CNS
# SW-620 colon = system: SW-620 colon
# SN12C renal = system: SN12C renal
# NCI-H226 lung = system: NCI-H226 lung
# SK-MEL-2 melanoma = system: SK-MEL-2 melanoma
# SF-295 CNS = system: SF-295 CNS
# SNB-19 CNS = system: SNB-19 CNS
# EKVX NSCLC = system: EKVX NSCLC
# A549 NSCLC = system: A549 NSCLC
# OVCAR-4 ovarian = system: OVCAR-4 ovarian
# SK-OV-3 ovarian = system: SK-OV-3 ovarian
# MDA-MB-435 = system: MDA-MB-435
# M14 melanoma = system: M14 melanoma
# MCF7 breast = system: MCF7 breast
# NCI-H522 lung = system: NCI-H522 lung
# MDA-MB-231 breast = system: MDA-MB-231 breast
# 786-0 renal = system: 786-0 renal
# RXF 393 renal = system: RXF 393 renal
# NCI-H460 lung = system: NCI-H460 lung
SMILES,TGI (SF-539 CNS),TGI (SW-620 colon),TGI (SN12C renal),TGI (NCI-H226 lung),TGI (SK-MEL-2 melanoma),TGI (SF-295 CNS),TGI (SNB-19 CNS),TGI (EKVX NSCLC),TGI (A549 NSCLC),TGI (OVCAR-4 ovarian),TGI (SK-OV-3 ovarian),TGI (MDA-MB-435),TGI (M14 melanoma),TGI (MCF7 breast),TGI (NCI-H522 lung),TGI (MDA-MB-231 breast),TGI (786-0 renal),TGI (RXF 393 renal),TGI (NCI-H460 lung),GI50 (SW-620 colon)
CCCCCC(O)(CCCCC)CCCCCCCCC1=C(O)c2ccccc2C(=O)C1=O,27.5 µM,32 µM,23.5 µM,36.4 µM,27.7 µM,40.5 µM,24.9 µM,60.1 µM,> 53.6 µM,> 48.8 µM,> 64.1 µM,> 62.4 µM,24.8 µM,23.6 µM,67.9 µM,32 µM,30.5 µM,29.9 µM,17.7 µM,–
CC(C)(C)c1cc(/C=C/C(=O)CC(=O)/C=C/c2cc(C(C)(C)C)c(O)c(C(C)(C)C)c2)cc(C(C)(C)C)c1O,> 50 µM,> 50 µM,> 50 µM,> 50 µM,> 50 µM,> 50 µM,> 50 µM,> 50 µM,> 50 µM,> 50 µM,> 50 µM,> 50 µM,> 50 µM,> 50 µM,> 50 µM,> 50 µM,> 50 µM,> 50 µM,> 50 µM,–
CCNc1cc2c3c(c1)CCCN3CCC2,40.5 µM,55.2 µM,8.63 µM,41.9 µM,30 µM,32.3 µM,33 µM,48.4 µM,35.9 µM,32.3 µM,37.3 µM,11.2 µM,63.7 µM,62.9 µM,62.7 µM,22.4 µM,26 µM,> 100 µM,29.8 µM,–
NC(=O)C[C@H](NC(=O)C1(NC(=O)[C@H](Cc2ccc(CP(=O)(O)O)cc2)NC(=O)C(=O)O)CCCCC1)C(=O)NCCCc1cccc2ccccc12,> 10 µM,> 10 µM,> 10 µM,> 10 µM,> 10 µM,> 10 µM,> 10 µM,> 10 µM,> 10 µM,> 10 µM,> 10 µM,> 10 µM,> 10 µM,> 10 µM,> 10 µM,> 10 µM,> 10 µM,> 10 µM,> 10 µM,–
NC(=O)c1ncn2c(=O)n(CCl)nnc12,> 100 µM,> 100 µM,> 100 µM,> 100 µM,> 100 µM,> 100 µM,> 100 µM,> 100 µM,> 100 µM,> 100 µM,> 100 µM,> 100 µM,> 100 µM,> 100 µM,> 100 µM,> 100 µM,> 100 µM,> 100 µM,> 100 µM,–
C[C@]12CC[C@H](O)CC1=CC[C@@H]1[C@@H]2CC[C@]2(C)c3nc(Cl)ccc3C[C@@H]12,37.2 µM,> 100 µM,> 94.8 µM,> 100 µM,> 100 µM,> 100 µM,> 100 µM,> 71.6 µM,96.9 µM,> 100 µM,99.2 µM,> 100 µM,> 100 µM,> 100 µM,> 100 µM,> 100 µM,> 100 µM,> 100 µM,> 100 µM,–
O=[N+]([O-])c1ccc2nc(/C=C(\O)c3ccccc3)c(/C=C(\O)c3ccccc3)nc2c1,22.8 µM,61.4 µM,> 100 µM,> 100 µM,> 82.2 µM,48.3 µM,> 100 µM,> 100 µM,> 58.5 µM,32.5 µM,> 75.4 µM,> 56.2 µM,> 67.3 µM,> 100 µM,38.7 µM,39.4 µM,44.3 µM,38.2 µM,> 81 µM,6.11 µM
Clc1ccc2nc(CC3CCCC3)[nH]c2c1,51.7 µM,> 100 µM,36.8 µM,38.4 µM,41.2 µM,34.7 µM,64 µM,43.5 µM,60.8 µM,45.8 µM,49.1 µM,25.9 µM,38.2 µM,22 µM,21.2 µM,43.6 µM,33.4 µM,32.1 µM,46.9 µM,–
